Patent US8415356B2, “Isoquinolinone derivatives as NK3 antagonists” (H. Lundbeck A/S, priority 2008, dated 2013)

Target: T1, human NK3 receptor (Homo sapiens, UniProt P29371)
T1 construct: expressed in transfected cells; membranes prepared from them
T1 sequence (P29371 1-465): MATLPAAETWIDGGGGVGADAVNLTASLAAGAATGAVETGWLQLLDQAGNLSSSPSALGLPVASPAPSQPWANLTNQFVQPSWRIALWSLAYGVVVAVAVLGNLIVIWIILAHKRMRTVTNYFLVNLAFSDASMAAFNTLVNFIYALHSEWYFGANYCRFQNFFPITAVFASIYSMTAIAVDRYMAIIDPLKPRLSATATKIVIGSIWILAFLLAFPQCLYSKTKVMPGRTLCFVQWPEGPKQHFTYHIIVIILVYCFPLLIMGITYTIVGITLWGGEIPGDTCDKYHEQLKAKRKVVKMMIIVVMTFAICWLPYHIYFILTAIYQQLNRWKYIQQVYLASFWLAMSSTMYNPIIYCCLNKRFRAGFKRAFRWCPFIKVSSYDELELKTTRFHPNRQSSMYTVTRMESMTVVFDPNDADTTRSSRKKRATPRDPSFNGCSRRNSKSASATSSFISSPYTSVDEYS
Assay: NK3 receptor binding assay (SPA-based competition binding with 125I-NKB)
Settings: read-out: Affinity Ki/nM
Method: Membrane preparation: BHK cells stably expressing the human NK3 receptor were seeded in harvesting plates in Dulbeccos MEM containing GlutaMax (862 mg/l), 1 mM sodium pyruvate, 10% fetal calf serum, 1% Pen/Strep, 1 mg/ml G418 and were grown at 34° C. in a humidified atmosphere containing 10% CO2. To increase receptor expression, 10 μM trichotatin A was added to the media 24 hours before harvest of the cells at a confluency of app 90%. Prior to the harvesting, the cells were washed twice with PBS without Mg^2+ og Ca^2+ and subsequently scrapped of in 10 ml PBS pr harvesting plate. The cells suspension were centrifuged at 1500×G in three minutes before resuspension in 15 mM Tris-HCl pH 7.5 buffer containing 2 mM MgCl2; 0.3 mM EDTA and 1 mM EGTA (buffer A). The cell suspention was homogenised and subsequently centrifuged at 40000×G in 30 minutes. The membrane-pellet was resuspended in buffer A containing 250 mM sucrose, aliquoted and stored at −80° C.
Affinity assay description: The assay was performed as a SPA-based competition-binding assay in a 50 mM Tris pH 7.4 assay buffer containing 120 mM NaCl, 3 mM MnCl2, 40 μg/ml bacitracin, 2 μg/ml Chymostatin, 1 μg/ml Phosphoramidon and 4 μg/ml Leupeptin. […] The assay plate was subsequently under agitation incubated for 90 min at RT. The plate was centrifugated 10 minutes at 500×G and counted in a topcounter 5 minutes pr well.

Point of comparison: `Cc1c(C(=O)N[C@H](c2cccc(F)c2)C2CC2)c2cccc(F)c2c(=O)n1-c1cncnc1` [2k, 8-Fluoro-3-methyl-1-oxo-2-pyrimidin-5-yl-1,2-dihydro-isoquinoline-4-carboxylic acid [(S)-cyclopropyl-(3-fluoro-phenyl)-methyl]-amide], Ki 110 nM. Against it:
- Cc1c(C(=O)N[C@H](c2cccc(F)c2)C2CCC2)c2cc(F)cc(F)c2c(=O)n1-c1cccnc1 [7c, 6,8-Difluoro-3-methyl-1-oxo-2-pyridin-3-yl-1,2-dihydro-isoquinoline-4-carboxylic acid [(S)-cyclobutyl-(3-fluoro-phenyl)-methyl]-amide] — 7.3-fold lower, 15 nM
- CC(C)(C)N1CCN(Cc2c(C(=O)N[C@H](c3cccc(F)c3)C3CC3)c3cccc(F)c3c(=O)n2-c2cccnc2)CC1 [6a, 3-(4-tert-Butyl-piperazin-1-ylmethyl)-8-fluoro-1-oxo-2-pyridin-3-yl-1,2-dihydro-isoquinoline-4-carboxylic acid [(S)-cyclopropyl-(3-fluoro-phenyl)-methyl]-amide] — 8.5-fold lower, 13 nM
- CCc1nnc(-n2c(C)c(C(=O)N[C@H](c3cccc(F)c3)C3CC3)c3cccc(F)c3c2=O)s1 [2v, 2-(5-Ethyl-[1,3,4]thiadiazol-2-yl)-8-fluoro-3-methyl-1-oxo-1,2-dihydro-isoquinoline-4-carboxylic acid [(S)-cyclopropyl-(3-fluoro-phenyl)-methyl]-amide] — 1.9-fold higher, 210 nM
- Cc1c(C(=O)N[C@H](c2cccc(F)c2)C2CC2)c2cccc(F)c2c(=O)n1-n1cnnc1 [2u, 8-Fluoro-3-methyl-1-oxo-2-[1,2,4]triazol-4-yl-1,2-dihydro-isoquinoline-4-carboxylic acid [(S)-cyclopropyl-(3-fluoro-phenyl)-methyl]-amide] — 1.8-fold higher, 200 nM
- Cc1ccc(-n2c(C)c(C(=O)N[C@H](c3cccc(F)c3)C3CC3)c3cccc(F)c3c2=O)cn1 [2l, 8-Fluoro-3-methyl-2-(6-methyl-pyridin-3-yl)-1-oxo-1,2-dihydro-isoquinoline-4-carboxylic acid [(S)-cyclopropyl-(3-fluoro-phenyl)-methyl]-amide] — 2-fold higher, 220 nM
- Cc1c(C(=O)N[C@H](c2cccc(F)c2)C2CCC2)c2cccc(F)c2c(=O)n1-c1ccn(C)n1 [3f, 8-Fluoro-3-methyl-2-(1-methyl-1H-pyrazol-3-yl)-1-oxo-1,2-dihydro-isoquinoline-4-carboxylic acid [(S)-cyclobutyl-(3-fluoro-phenyl)-methyl]-amide] — 1.5-fold lower, 71 nM
- Cc1c(C(=O)N[C@H](c2cccc(F)c2)C2CC2)c2cccc(O)c2c(=O)n1-c1cccnc1 [8a, 8-Hydroxy-3-methyl-1-oxo-2-pyridin-3-yl-1,2-dihydro-isoquinoline-4-carboxylic acid [(S)-cyclopropyl-(3-fluoro-phenyl)-methyl]-amide] — 3.3-fold lower, 33 nM
- O=C(N[C@H](c1cccc(F)c1)C1CC1)c1c(CN2CCCC2=O)n(-c2cccnc2)c(=O)c2c(F)cccc12 [6b, 8-Fluoro-1-oxo-3-(2-oxo-pyrrolidin-1-ylmethyl)-2-pyridin-3-yl-1,2-dihydro-isoquinoline-4-carboxylic acid [(S)-cyclopropyl-(3-fluoro-phenyl)-methyl]-amide] — the same, 110 nM
- Cc1c(C(=O)N[C@H](c2cccc(F)c2)C2CC2)c2cccc(F)c2c(=O)n1-c1ccc(Cl)nc1 [2d, 2-(6-Chloro-pyridin-3-yl)-8-fluoro-3-methyl-1-oxo-1,2-dihydro-isoquinoline-4-carboxylic acid [(S)-cyclopropyl-(3-fluoro-phenyl)-methyl]-amide] — within 1.5-fold, 120 nM
- Cc1c(C(=O)N[C@H](c2cccc(F)c2)C2CC2)c2cccc(F)c2c(=O)n1-n1cccc1 [2ac, 8-Fluoro-3-methyl-1-oxo-2-pyrrol-1-yl-1,2-dihydro-isoquinoline-4-carboxylic acid [(S)-cyclopropyl-(3-fluoro-phenyl)-methyl]-amide] — within 1.5-fold, 96 nM
- Cc1c(C(=O)N[C@H](c2ccccc2)C2CCC2)c2cccc(F)c2c(=O)n1-c1cccnc1 [4a, 8-Fluoro-3-methyl-1-oxo-2-pyridin-3-yl-1,2-dihydro-isoquinoline-4-carboxylic acid ((S)-cyclobutyl-phenyl-methyl)-amide] — 6.1-fold lower, 18 nM
- Cc1csc(-n2c(C)c(C(=O)N[C@H](c3cccc(F)c3)C3CC3)c3cccc(F)c3c2=O)n1 [2r, 8-Fluoro-3-methyl-2-(4-methyl-thiazol-2-yl)-1-oxo-1,2-dihydro-isoquinoline-4-carboxylic acid [(S)-cyclopropyl-(3-fluoro-phenyl)-methyl]-amide] — within 1.5-fold, 150 nM
- Cc1c(C(=O)N[C@H](c2cccc(F)c2)C2CC2)c2cccc(F)c2c(=O)n1-c1ccccn1 [2b, 8-Fluoro-3-methyl-1-oxo-2-pyridin-2-yl-1,2-dihydro-isoquinoline-4-carboxylic acid [(S)-cyclopropyl-(3-fluoro-phenyl)-methyl]-amide] — within 1.5-fold, 150 nM

System: not given
Assay: not given
Settings: versus placebo; delusions, hallucinations and paranoia; cited from earlier work

In the case of `CC(=O)N(C)C1(c2ccccc2)CCN(CCC[C@]2(c3ccc(Cl)c(Cl)c3)CCCN(C(=O)c3ccccc3)C2)CC1` [Osanetant, osanetant], the “effect in clinical trials, in particular on positive symptoms of psychosis” value is given as “superior to placebo”.

System: not given
Assay: not given
Settings: schizophrenics; cited from earlier work

For `CC[C@H](NC(=O)c1c(O)c(-c2ccccc2)nc2ccccc12)c1ccccc1` [talnetant], the “effect in clinical trials on cognitive behaviour” value is listed as “ameliorate the cognitive behaviour”.
